From patent publication US8334315B2, “Substituted aromatic carboxamide and urea derivatives as vanilloid receptor ligands” (Gruenenthal GmbH, priority 2009, dated 2012)

Experiments:
hVR1 [1] = target: T1, hVR1 (Homo sapiens, UniProt Q8NER1); assay: Functional test on VR1, FLIPR Ca2+ influx in transfected CHO K1 cells, capsaicin; assay type: cell-based; conditions: capsaicin (Cap), read-out: Ki (human being) Cap column: inhibition (as a percentage)
T1 construct: expressed in transfected cells; host or cells: CHO K1 cells (ECACC), stably transfected
T1 sequence (Q8NER1 whole entry): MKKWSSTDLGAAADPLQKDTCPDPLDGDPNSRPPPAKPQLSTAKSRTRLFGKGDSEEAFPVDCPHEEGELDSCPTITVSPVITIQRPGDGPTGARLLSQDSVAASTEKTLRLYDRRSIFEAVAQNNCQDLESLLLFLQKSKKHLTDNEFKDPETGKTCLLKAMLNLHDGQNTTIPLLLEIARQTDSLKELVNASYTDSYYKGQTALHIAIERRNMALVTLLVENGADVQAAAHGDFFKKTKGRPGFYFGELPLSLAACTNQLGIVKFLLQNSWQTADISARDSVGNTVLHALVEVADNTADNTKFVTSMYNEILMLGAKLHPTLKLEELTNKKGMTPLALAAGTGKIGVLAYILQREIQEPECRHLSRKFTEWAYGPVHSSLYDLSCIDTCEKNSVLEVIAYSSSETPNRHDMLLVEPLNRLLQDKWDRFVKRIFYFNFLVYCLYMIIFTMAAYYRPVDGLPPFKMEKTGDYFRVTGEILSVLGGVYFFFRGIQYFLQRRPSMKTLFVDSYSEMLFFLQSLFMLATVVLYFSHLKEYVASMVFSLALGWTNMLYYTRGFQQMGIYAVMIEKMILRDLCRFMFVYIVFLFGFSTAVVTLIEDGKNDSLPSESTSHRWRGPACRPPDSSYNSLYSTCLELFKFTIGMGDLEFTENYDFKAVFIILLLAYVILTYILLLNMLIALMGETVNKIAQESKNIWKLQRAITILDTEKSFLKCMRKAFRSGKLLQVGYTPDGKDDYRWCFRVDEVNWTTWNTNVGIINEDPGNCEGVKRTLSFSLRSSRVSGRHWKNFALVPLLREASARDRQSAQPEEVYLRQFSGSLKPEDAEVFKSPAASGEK

hVR1 [2] = target: T1, hVR1; assay: as above; assay type: cell-based, human being; conditions: capsaicin (Cap); includes values given in brackets after pAG; read-out: Ki (human being) [nM] Cap
hVR1 [3] = target: T1, hVR1; assay: Functional test on human VR1, 45° C. stimulus; assay type: cell-based, human being; conditions: read-out: IC50 (human being) [nM], 45° C.
hVR1 [4] = target: T1, hVR1; assay: Functional test on hVR1 after pH stimulus; assay type: cell-based, human being; conditions: @ 10 μM, read-out: IC50 (human being) hVR1, pH: inhibition (as a percentage)
hVR1 [5] = target: T1, hVR1; assay: Functional test on human VR1, NADA (N-arachidonoyl dopamine) stimulus; assay type: cell-based, human being; conditions: includes values given in brackets after pAG, read-out: Ki (human being) [nM] NADA
Excerpt: II. Functional Tests Carried Out on the Vanilloid Receptor (VR1)
The agonistic or antagonistic effect of the substances to be tested on the vanilloid receptor 1 (VR1) can also be determined using the following assay. In this assay, the influx of Ca^2+ through the channel is quantified with the aid of a Ca^2+-sensitive dye (type Fluo-4, Molecular Probes Europe BV, Leiden, the Netherlands) in a fluorescent imaging plate reader (FLIPR, Molecular Devices, Sunnyvale, USA).
Chinese hamster ovary cells (CHO K1 cells, European Collection of Cell Cultures (ECACC) United Kingdom) are stably transfected with the VR1 gene. For functional testing, these cells are plated out on poly-D-lysine-coated black 96-well plates having a clear base (BD Biosciences, Heidelberg, Germany) at a density of 25,000 cells/well. The cells are incubated overnight at 37° C. and 5% CO2 in a culture medium (Ham's F12 nutrient mixture, 10% by volume of FCS (foetal calf serum), 18 μg/ml of L-proline). The next day the cells are incubated with Fluo-4 (Fluo-4 2 μM, 0.01% by volume of Pluronic F127, Molecular Probes in HBSS (Hank's buffered saline solution), Gibco Invitrogen GmbH, Karlsruhe, Germany) for 30 minutes at 37° C. Subsequently, the plates are washed three times with HBSS buffer and after further incubation for 15 minutes at RT used for Ca^2+ measurement in a FLIPR assay. The Ca^2+-dependent fluorescence is measured before and after the addition of the substances to be tested (λex wavelength=488 nm, λem=540 nm). Quantification is carried out by measuring the highest fluorescence intensity (FC, fluorescence counts) over time.
The FLIPR protocol consists of 2 substance additions. First the compounds to be tested (10 μM) are pipetted onto the cells and the Ca^2+ influx is compared with the control (capsaicin 10 μM) (% activation based on the Ca^2+ signal after the addition of 10 μM of capsaicin). […]
Desensitising agonists and antagonists led to suppression of the Ca^2+ influx. The % inhibition is calculated compared to the maximum achievable inhibition with 10 μM of capsaicin.
Starting from the percentage displacement caused by different concentrations of the compounds to be tested of general formula I, IC50 inhibitory concentrations which cause a 50-per cent displacement of capsaicin were calculated. Ki values for the test substances were obtained by conversion by means of the Cheng-Prusoff equation (Cheng, Prusoff; Biochem. Pharmacol. 22, 3099-3108, 1973).
NADA=N-arachidonoyl dopamine

[6] = target: T2, rat-species vanilloid receptor 1 (VR1/TRPV1) (Rattus norvegicus, UniProt O35433); assay: Functional testing on the vanilloid receptor 1, FLIPR Ca2+ influx in rat DRG cells, capsaicin; assay type: cell-based; conditions: capsaicin (Cap); includes values given in brackets after pAG
T2 construct: endogenous in cells; host or cells: primary cells dissociated from rat dorsal root ganglia (DRG), cultured 2-3 days with NGF
T2 sequence (O35433 whole entry): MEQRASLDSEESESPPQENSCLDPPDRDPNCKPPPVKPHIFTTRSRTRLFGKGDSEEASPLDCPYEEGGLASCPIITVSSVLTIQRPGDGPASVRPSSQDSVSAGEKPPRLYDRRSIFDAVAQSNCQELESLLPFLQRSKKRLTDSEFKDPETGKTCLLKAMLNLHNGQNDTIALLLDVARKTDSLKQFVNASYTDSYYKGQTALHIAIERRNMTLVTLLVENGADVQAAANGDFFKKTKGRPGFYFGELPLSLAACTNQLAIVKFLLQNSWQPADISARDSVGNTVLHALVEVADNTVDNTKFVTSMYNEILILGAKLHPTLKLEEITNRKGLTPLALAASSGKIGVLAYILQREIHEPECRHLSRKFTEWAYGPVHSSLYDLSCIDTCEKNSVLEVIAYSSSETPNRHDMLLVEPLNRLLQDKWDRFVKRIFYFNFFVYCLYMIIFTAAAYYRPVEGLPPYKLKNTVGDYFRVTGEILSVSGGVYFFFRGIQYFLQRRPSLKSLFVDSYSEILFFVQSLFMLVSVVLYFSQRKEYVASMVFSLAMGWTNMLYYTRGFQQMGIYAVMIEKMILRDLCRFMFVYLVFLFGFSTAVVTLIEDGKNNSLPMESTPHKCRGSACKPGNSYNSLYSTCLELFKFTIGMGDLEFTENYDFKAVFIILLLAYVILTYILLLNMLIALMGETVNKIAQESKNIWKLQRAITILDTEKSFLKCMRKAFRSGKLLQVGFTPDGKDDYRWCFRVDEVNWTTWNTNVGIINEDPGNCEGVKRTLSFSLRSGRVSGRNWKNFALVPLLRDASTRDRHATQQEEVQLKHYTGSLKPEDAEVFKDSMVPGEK
Excerpt: I. Functional Testing Carried Out on the Vanilloid Receptor 1 (VRI/TRPV1 Receptor)
The agonistic or antagonistic effect of the substances to be tested on the rat-species vanilloid receptor 1 (VR1/TRPV1) can be determined using the following assay. In this assay, the influx of Ca^2+ through the receptor channel is quantified with the aid of a Ca^2+-sensitive dye (type Fluo-4, Molecular Probes Europe BV, Leiden, the Netherlands) in a fluorescent imaging plate reader (FLIPR, Molecular Devices, Sunnyvale, USA).
Complete medium: 50 ml HAMS F12 nutrient mixture (Gibco Invitrogen GmbH, Karlsruhe, Germany) with
10% by volume of FCS (foetal calf serum, Gibco Invitrogen GmbH, Karlsruhe, Germany, heat-inactivated);
2 mM L-glutamine (Sigma, Munich, Germany);
1% by weight of AA solution (antibiotic/antimyotic solution, PAA, Pasching, Austria) and 25 ng/ml NGF medium (2.5 S, Gibco Invitrogen GmbH, Karlsruhe, Germany)
Cell culture plate: Poly-D-lysine-coated, black 96-well plates having a clear base (96-well black/clear plate, BD Biosciences, Heidelberg, Germany) are additionally coated with laminin (Gibco Invitrogen GmbH, Karlsruhe, Germany), the laminin being diluted with PBS (Ca—Mg-free PBS, Gibco Invitrogen GmbH, Karlsruhe, Germany) to a concentration of 100 μg/ml. Aliquots having a laminin concentration of 100 μg/ml are removed and stored at −20° C. The aliquots are diluted with PBS in a ratio of 1:10 to 10 μg/ml of laminin and respectively 50 μL of the solution are pipetted into a recess in the cell culture plate. The cell culture plates are incubated for at least two hours at 37° C., the excess solution is removed by suction and the recesses are each washed twice with PBS. The coated cell culture plates are stored with excess PBS which is not removed until just before the feeding of the cells.
Preparation of the Cells:
The vertebral column is removed from decapitated rats and placed immediately into cold HBSS buffer (Hank's buffered saline solution, Gibco Invitrogen GmbH, Karlsruhe, Germany), i.e. buffer located in an ice bath, mixed with 1% by volume (per cent by volume) of an AA solution (antibiotic/antimyotic solution, PAA, Pasching, Austria). The vertebral column is cut longitudinally and removed together with fasciae from the vertebral canal. Subsequently, the dorsal root ganglia (DRG) are removed and again stored in cold HBSS buffer mixed with 1% by volume of an AA solution. The DRG, from which all blood remnants and spinal nerves have been removed, are transferred in each case to 500 μL of cold type 2 collagenase (PAA, Pasching, Austria) and incubated for 35 minutes at 37° C. After the addition of 2.5% by volume of trypsin (PAA, Pasching, Austria), incubation is continued for 10 minutes at 37° C. After complete incubation, the enzyme solution is carefully pipetted off and 500 μL of complete medium are added to each of the remaining DRG. The DRG are respectively suspended several times, drawn through cannulae No. 1, No. 12 and No. 16 using a syringe and transferred to a 50 ml Falcon tube which is filled up to 15 ml with complete medium. The contents of each Falcon tube are respectively filtered through a 70 μm Falcon filter element and centrifuged for 10 minutes at 1,200 rpm and RT. The resulting pellet is respectively taken up in 250 μL of complete medium and the cell count is determined.
The number of cells in the suspension is set to 3×10^5 per ml and 150 μL of this suspension are in each case introduced into a recess in the cell culture plates coated as described hereinbefore. In the incubator the plates are left for two to three days at 37° C., 5% by volume of CO2 and 95% relative humidity. […]

inhibition at 5 µM (hVR1 [1]) | Ki (hVR1 [2]) | IC50 (hVR1 [3]) | inhibition at 10 µM (hVR1 [4]) | Ki (hVR1 [5]) | Ki [6] | SMILES
13% | – | – | – | – | – | COc1ccc(Cn2nc(C(F)(F)F)cc2CNC(=O)C(C)c2ccc3c(c2)OCCO3)cc1 (stereo not drawn) [Example 202, 2-(2,3-dihydrobenzo[b][1,4]dioxin-6-yl)-N-((1-(4-methoxybenzyl)-3-(trifluoromethyl)-1H-pyrazol-5-yl)methyl)propanamide]
– | 1.1 nM | 297 nM | 13% | 0.008 nM | 11.2 nM | CC(C(=O)NCc1cc(C(F)(F)F)nn1-c1cccc(Cl)c1)c1cccc2[nH]ncc12 (stereo not drawn) [Example 27, N-((1-(3-chlorophenyl)-3-(trifluoromethyl)-1H-pyrazol-5-yl)methyl)-2-(1H-indazol-4-yl)propanamide]
